# Laboratory results as given in ChEMBL document CHEMBL4808230, “Neuroprotective effects of 2-heptyl-3-hydroxy-4-quinolone in HT22 mouse hippocampal neuronal cells” (2021).
# The source made the active and inactive calls. No cut-off for these calls is given here.
# How the values were obtained:
# HT-22 [1] = assay: Neuroprotective activity against glutamate-induced cytotoxicity in mouse HT-22 cells assessed as increase in cell viability at 0.6 uM in presence of glutamate by calcein-AM dye/propidium iodide staining based microscopic analysis; format: functional
# HT-22 [2] = assay: Neuroprotective activity against glutamate-induced cytotoxicity in mouse HT-22 cells assessed as increase in cell viability at 1.85 to 5.5 uM in presence of glutamate by calcein-AM dye/propidium iodide staining based microscopic analysis; format: functional; settings: dose 1.85-5.5 µM
# HT-22 [3] = assay: Inhibition of glutamate-induced oxidative stress in mouse HT-22 cells assessed as reduction in intracellular ROS accumulation at 0.2 to 1.8 uM in presence of glutamate by FACS analysis; format: functional, cell-based; settings: dose 0.2-1.8 µM
# HT-22 [4] = assay: Inhibition of glutamate-induced oxidative stress in mouse HT-22 cells assessed as reduction in intracellular ROS accumulation at 0.2 to 3.6 uM in presence of glutamate by DCF-DA staining based fluorescence microscopic analysis; format: functional, cell-based; settings: dose 0.2-3.6 µM
# HT-22 [5] = assay: Inhibition of glutamate-induced Ca2+ influx in mouse HT-22 cells assessed as reduction in intracellular Ca2+ concentration in presence of glutamate by Fluo3-AM staining based fluorescence microscopic method; format: functional, cell-based; settings: dose 0.6-1.8 µM
# [6] = biological target: c-Jun N-terminal kinase (Mus musculus) (UniProt Q91Y86+Q9WTU6+Q61831); assay: Inhibition of glutamate-induced JNK activation in mouse HT-22 cells assessed as reduction in phosphorylated JNK protein level at 1 to 10 uM in presence of glutamate by Western blot analysis; format: cell-based; settings: dose 1-10 µM
# c-Jun N-terminal kinase (Mus musculus), sequence (Q61831 whole entry, looked up): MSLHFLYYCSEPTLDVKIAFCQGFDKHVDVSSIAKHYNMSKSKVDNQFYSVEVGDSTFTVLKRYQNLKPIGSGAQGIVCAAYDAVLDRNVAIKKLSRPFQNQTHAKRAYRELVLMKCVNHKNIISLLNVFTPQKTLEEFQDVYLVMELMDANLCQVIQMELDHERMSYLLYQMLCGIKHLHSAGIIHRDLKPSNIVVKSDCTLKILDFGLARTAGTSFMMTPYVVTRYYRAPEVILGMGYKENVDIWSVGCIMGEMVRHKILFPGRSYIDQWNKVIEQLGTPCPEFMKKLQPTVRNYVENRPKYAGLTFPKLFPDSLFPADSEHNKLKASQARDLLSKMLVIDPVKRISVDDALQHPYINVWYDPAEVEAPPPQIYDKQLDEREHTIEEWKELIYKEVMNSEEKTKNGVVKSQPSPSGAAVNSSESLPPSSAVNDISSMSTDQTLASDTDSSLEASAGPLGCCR
# c-Jun N-terminal kinase (Mus musculus), sequence (Q91Y86 whole entry, looked up): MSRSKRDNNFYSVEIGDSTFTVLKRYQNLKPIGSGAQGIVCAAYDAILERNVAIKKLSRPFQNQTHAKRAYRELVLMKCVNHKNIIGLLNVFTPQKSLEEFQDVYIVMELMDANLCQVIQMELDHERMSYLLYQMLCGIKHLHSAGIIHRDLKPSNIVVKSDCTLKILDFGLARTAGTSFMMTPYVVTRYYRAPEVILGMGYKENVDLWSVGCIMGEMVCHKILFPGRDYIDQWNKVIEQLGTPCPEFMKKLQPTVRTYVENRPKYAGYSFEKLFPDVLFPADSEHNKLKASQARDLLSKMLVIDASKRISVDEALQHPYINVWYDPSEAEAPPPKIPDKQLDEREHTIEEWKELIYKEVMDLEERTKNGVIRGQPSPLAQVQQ
# c-Jun N-terminal kinase (Mus musculus), sequence (Q9WTU6 whole entry, looked up): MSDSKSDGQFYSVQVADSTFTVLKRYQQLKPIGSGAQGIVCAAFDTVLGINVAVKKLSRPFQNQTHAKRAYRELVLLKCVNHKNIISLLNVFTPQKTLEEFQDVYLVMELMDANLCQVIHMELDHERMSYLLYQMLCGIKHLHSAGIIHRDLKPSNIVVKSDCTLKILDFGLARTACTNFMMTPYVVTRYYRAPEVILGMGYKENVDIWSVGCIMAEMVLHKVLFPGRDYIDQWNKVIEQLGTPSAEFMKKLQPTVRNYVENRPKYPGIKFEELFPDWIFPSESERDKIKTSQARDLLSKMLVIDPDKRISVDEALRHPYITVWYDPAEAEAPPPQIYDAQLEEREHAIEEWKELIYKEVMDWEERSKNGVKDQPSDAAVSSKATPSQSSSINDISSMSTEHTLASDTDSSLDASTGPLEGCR
# HT-22 [7] = assay: Inhibition of glutamate-induced ERK activation in mouse HT-22 cells assessed as reduction in phosphorylated ERK protein level at 1 to 10 uM in presence of glutamate by Western blot analysis; format: cell-based; settings: dose 1-10 µM
# [8] = biological target: MAP kinase p38 (Mus musculus) (UniProt P47811+O08911+Q9WUI1+Q9Z1B7); assay: Inhibition of glutamate-induced p38 MAPK activation in mouse HT-22 cells assessed as reduction in phosphorylated p38 MAPK protein level at 1 to 10 uM in presence of glutamate by Western blot analysis; format: cell-based; settings: dose 1-10 µM
# HT-22 [9] = assay: Inhibition of glutamate-induced apoptosis in mouse HT-22 cells assessed as reduction in Bax protein level at 1 to 10 uM incubated for 10 hrs in presence of glutamate by Western blot analysis; format: functional, cell-based; settings: dose 1-10 µM
# HT-22 [10] = assay: Inhibition of glutamate-induced apoptosis in mouse HT-22 cells assessed as increase in Bcl2 protein level at 1 to 10 uM incubated for 10 hrs in presence of glutamate by Western blot analysis; format: functional, cell-based; settings: dose 1-10 µM
# HT-22 [11] = assay: Inhibition of glutamate-induced AIF nuclear translocation in mouse HT-22 cells assessed as decrease in translocation of AIF from mitochondria to nucleus at 1 to 10 uM in presence of glutamate by Western blot analysis; format: functional, cell-based; settings: dose 1-10 µM
# HT-22 [12] = assay: Inhibition of glutamate-induced apoptosis in mouse HT-22 cells assessed as early apoptotic cells at 0.2 uM pretreated with glutamate for 2 hrs followed by incubation with compound for 8 hrs by Annexin-V FITC and propidium iodide staining based flow cytometric analysis (reference value: 71.33%); format: functional; set-up: scale not given: the % may be the effect or the level left
# HT-22 [13] = assay: Inhibition of glutamate-induced apoptosis in mouse HT-22 cells assessed as late apoptotic cells at 0.2 uM pretreated with glutamate for 2 hrs followed by incubation with compound for 8 hrs by Annexin-V FITC and propidium iodide staining based flow cytometric analysis (reference value: 6.49%); format: functional; set-up: scale not given: the % may be the effect or the level left
# HT-22 [14] = assay: Inhibition of glutamate-induced apoptosis in mouse HT-22 cells assessed as necrotic cells at 0.2 uM pretreated with glutamate for 2 hrs followed by incubation with compound for 8 hrs by Annexin-V FITC and propidium iodide staining based flow cytometric analysis (reference value: 0.79%); format: functional; set-up: scale not given: the % may be the effect or the level left
# HT-22 [15] = assay: Inhibition of glutamate-induced apoptosis in mouse HT-22 cells assessed as early apoptotic cells at 1.85 uM pretreated with glutamate for 2 hrs followed by incubation with compound for 8 hrs by Annexin-V FITC and propidium iodide staining based flow cytometric analysis (reference value: 71.33%); format: functional; set-up: scale not given: the % may be the effect or the level left
# HT-22 [16] = assay: Inhibition of glutamate-induced apoptosis in mouse HT-22 cells assessed as late apoptotic cells at 1.85 uM pretreated with glutamate for 2 hrs followed by incubation with compound for 8 hrs by Annexin-V FITC and propidium iodide staining based flow cytometric analysis (reference value: 6.49%); format: functional; set-up: scale not given: the % may be the effect or the level left
# HT-22 [17] = assay: Inhibition of glutamate-induced apoptosis in mouse HT-22 cells assessed as necrotic cells at 1.85 uM pretreated with glutamate for 2 hrs followed by incubation with compound for 8 hrs by Annexin-V FITC and propidium iodide staining based flow cytometric analysis (reference value: 0.79%); format: functional; set-up: scale not given: the % may be the effect or the level left
# HT-22 [18] = assay: Inhibition of glutamate-induced apoptosis in mouse HT-22 cells assessed as viable cells at 1.85 uM pretreated with glutamate for 2 hrs followed by incubation with compound for 8 hrs by Annexin-V FITC and propidium iodide staining based flow cytometric analysis (reference value: 21.39%); format: functional; settings: read-out: Activity
# HT-22 [19] = assay: Inhibition of glutamate-induced apoptosis in mouse HT-22 cells assessed as viable cells at 0.2 uM pretreated with glutamate for 2 hrs followed by incubation with compound for 8 hrs by Annexin-V FITC and propidium iodide staining based flow cytometric analysis (reference value: 21.39%); format: functional; settings: read-out: Activity
# HT-22 [20] = assay: Neuroprotective activity against glutamate-induced cytotoxicity in mouse HT-22 cells assessed as reduction in cell death and morphological changes at 0.6 to 1.8 uM incubated for 12 hrs in presence of glutamate by phase contrast microscopic analysis; format: functional, cell-based; settings: dose 0.6-1.8 µM
# HT-22 [21] = assay: Neuroprotective activity against glutamate-induced cytotoxicity in mouse HT-22 cells assessed as reduction in cell death pretreated with glutamate followed by incubation with compound for 6 hrs and measured at 16 hrs post-glutamate treatment; format: functional, cell-based
# HT-22 [22] = assay: Neuroprotective activity against glutamate-induced cytotoxicity in mouse HT-22 cells assessed as reduction in cell death pretreated with glutamate followed by incubation with compound for 8 hrs and measured at 16 hrs post-glutamate treatment; format: functional, cell-based
# RGC-5 = assay: Cytoprotective activity against glutamate-induced cytotoxicity in rat RGC-5 cells assessed as reduction in cell death; format: functional, cell-based
# [23] = Antioxidant activity assessed as DPPH radical scavenging activity; format: functional
# [24] = Inhibition of glutamate-induced Ca2+ influx in mouse HT-22 cells assessed as reduction in intracellular Ca2+ concentration at 0.6 to 1.8 uM in presence of glutamate by Fluo3-AM staining based fluorescence microscopic method relative to control; format: functional; settings: dose 0.6-1.8 µM
# HT-22 [25] = assay: Inhibition of glutamate-induced AIF nuclear translocation in mouse HT-22 cells assessed as decrease in translocation of AIF from mitochondria to nucleus in presence of glutamate by immunostaining analysis; format: functional, cell-based
smiles,measurement,setting,value
CCCCCCCc1[nH]c2ccccc2c(=O)c1O,Activity,HT-22 [1],Active
same,Activity,HT-22 [2],inactive
same,inhibition,HT-22 [3],Active
same,inhibition,HT-22 [4],Active
same,inhibition,HT-22 [5],Dose-Dependent Effect
same,inhibition,[6],Active
same,inhibition,HT-22 [7],Active
same,inhibition,[8],Active
same,inhibition,HT-22 [9],Active
same,inhibition,HT-22 [10],Active
same,inhibition,HT-22 [11],Active
same,Activity,HT-22 [12],55.26%
same,Activity,HT-22 [13],5.51%
same,Activity,HT-22 [14],1.74%
same,Activity,HT-22 [15],0.44%
same,Activity,HT-22 [16],1.06%
same,Activity,HT-22 [17],0.44%
same,viability at 1.85 µM,HT-22 [18],98.1%
same,viability at 0.2 µM,HT-22 [19],37.5%
same,Activity,HT-22 [20],Active
same,Activity,HT-22 [21],Active
same,Activity,HT-22 [22],inactive
same,Activity,RGC-5,Active
same,Activity,[23],Dose-Dependent Effect
same,fold change (FC),[24],0.98
same,inhibition,HT-22 [25],Active
